How the values were obtained:
Assay in all cases: relative viability (nuclei count vs DMSO), 5 days (fraction); higher = more cells survive
Bemcentinib + Dasatinib = compound: Nc1nc(Nc2ccc3c(c2)CC[C@@H](N2CCCC2)CC3)nn1-c1cc2c(nn1)-c1ccccc1CCC2 [Bemcentinib] + Cc1nc(Nc2ncc(C(=O)Nc3c(C)cccc3Cl)s2)cc(N2CCN(CCO)CC2)n1 [Dasatinib] (partner 0.075 µM)
In short: (§1)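 One day after seeding in 1536-well plates, lung cancer cell lines were dosed by pin tool. Dosing was either single-drug or a fixed anchor-drug dose plus five library-drug doses (not always all listed) in √10 steps. After 5 days, nuclei were stained in one fix-and-stain step and counted on 4× images, and relative viability is the nuclei count of treated wells over that of vehicle wells, given as the median of duplicate plates.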

[1] = compound: CC1=CC=C(C=C1)C(=O)CN2C3=C(CCCC3)SC2=N [Pifithrin_alpha] + Cc1nc(NC(=O)N2CCC[C@H]2C(N)=O)sc1-c1ccnc(C(C)(C)C(F)(F)F)c1 [Alpelisib] (partner 2 µM)
In short: as §1

Axitinib + Vorinostat = compound: CNC(=O)c1ccccc1Sc1ccc2c(/C=C/c3ccccn3)n[nH]c2c1 [Axitinib] + O=C(CCCCCCC(=O)Nc1ccccc1)NO [Vorinostat] (partner 1 µM)
In short: as §1

Axitinib + Trametinib = compound: CNC(=O)c1ccccc1Sc1ccc2c(/C=C/c3ccccn3)n[nH]c2c1 [Axitinib] + CC(=O)Nc1cccc(-n2c(=O)n(C3CC3)c(=O)c3c(Nc4ccc(I)cc4F)n(C)c(=O)c(C)c32)c1 [Trametinib] (partner 0.02 µM)
In short: as §1

Cell Line	relative viability (Bemcentinib + Dasatinib; first compound 0.04 µM)	relative viability (Bemcentinib + Dasatinib; first compound 0.1265 µM)	relative viability (Bemcentinib + Dasatinib; first compound 0.4 µM)	relative viability (Bemcentinib + Dasatinib; first compound 1.265 µM)	relative viability (Bemcentinib + Dasatinib; first compound 4 µM)	relative viability ([1]; first compound 1 µM)	relative viability ([1]; first compound 3.162 µM)	relative viability ([1]; first compound 10 µM)	relative viability ([1]; first compound 31.62 µM)	relative viability ([1]; first compound 100 µM)	relative viability (Axitinib + Vorinostat; first compound 0.005 µM)	relative viability (Axitinib + Vorinostat; first compound 0.01581 µM)	relative viability (Axitinib + Vorinostat; first compound 0.05 µM)	relative viability (Axitinib + Vorinostat; first compound 0.1581 µM)	relative viability (Axitinib + Vorinostat; first compound 0.5 µM)	relative viability (Axitinib + Trametinib; first compound 0.005 µM)	relative viability (Axitinib + Trametinib; first compound 0.01581 µM)	relative viability (Axitinib + Trametinib; first compound 0.05 µM)	relative viability (Axitinib + Trametinib; first compound 0.1581 µM)	relative viability (Axitinib + Trametinib; first compound 0.5 µM)
NCI-H1563	0.403	0.429	0.448	0.413	0.444	0.967	0.919	0.936	0.922	0.82	–	–	–	–	–	–	–	–	–	–
EMC-BAC-2	0.349	0.323	0.342	0.29	0.336	0.719	0.776	0.738	0.56	0.822	0.469	0.371	0.528	0.445	0.438	0.952	0.905	0.898	0.926	0.88
NCI-H596	0.454	0.604	0.575	0.593	0.627	0.373	0.452	0.492	0.532	0.443	0.764	0.627	0.576	0.558	0.575	0.881	0.625	0.835	0.8	0.895
NCI-H2009	0.24	0.303	0.276	0.272	0.247	1.25	1.11	1.1	0.835	0.827	0.732	0.783	0.736	0.716	0.821	0.279	0.252	0.304	0.245	0.254
HOP-62	0.639	0.656	0.768	0.552	0.718	1.18	1.1	0.848	0.62	0.931	0.713	0.686	0.585	0.696	0.76	0.404	0.351	0.404	0.431	0.454
NCI-H2126	0.559	0.67	0.646	0.71	0.699	0.714	0.714	0.685	0.623	0.655	0.828	0.819	0.801	0.8	0.724	0.536	0.612	0.578	0.603	0.545
HCC-15	0.628	0.696	0.708	0.669	0.732	0.948	0.902	0.833	0.659	0.839	0.992	0.91	0.837	0.743	0.823	0.403	0.417	0.378	0.372	0.383
NCI-H23	0.476	0.884	0.985	0.632	0.828	0.586	0.572	0.634	0.466	0.592	0.644	0.51	0.674	0.583	0.667	0.45	0.373	0.433	0.405	0.368
LCLC-97TM1	0.851	0.818	0.736	0.851	0.975	–	0.226	0.224	–	0.236	0.889	0.734	0.756	0.804	0.766	0.18	0.212	0.184	0.202	0.187
SW 1573	0.411	0.52	0.611	0.477	0.636	0.715	0.824	0.816	0.647	0.729	0.735	0.789	0.985	0.741	0.783	0.525	0.558	0.665	0.521	0.611
EKVX	0.556	0.528	0.592	0.628	0.588	0.918	0.743	0.567	0.583	0.548	0.804	0.687	0.797	0.686	0.805	0.286	0.29	0.347	0.323	0.406
HCC-44	–	–	–	–	–	0.681	0.699	0.715	0.453	0.591	1.04	1.15	1.11	1.09	1.13	1.05	1.1	1.05	1.06	1.03
NCI-H1651	0.393	0.381	0.484	0.41	0.498	0.884	0.933	0.908	0.685	0.989	0.563	0.542	0.537	0.548	0.59	0.9	0.84	0.744	0.797	0.826
COR-L23	0.414	0.531	0.55	0.359	0.482	0.857	0.849	0.931	–	0.663	0.516	0.478	0.502	0.452	0.586	0.693	0.623	0.785	0.527	0.656
NCI-H1299	–	–	–	–	–	1.1	1.09	1.07	0.874	1.18	–	–	–	–	–	–	–	–	–	–
NCI-H1734	0.46	0.48	0.512	0.41	0.448	0.75	0.699	0.638	0.576	0.682	0.787	0.891	0.865	0.903	0.964	0.676	0.549	0.608	0.686	0.669
NCI-H1793	0.305	0.412	0.342	–	0.405	0.752	0.68	0.839	0.73	0.538	0.955	0.679	0.693	0.637	0.678	0.382	0.374	0.469	0.408	0.447
NCI-H522	0.768	0.975	0.886	0.844	0.829	–	–	–	–	–	0.919	0.909	0.863	0.855	0.702	0.87	0.752	0.853	0.633	0.81
